“And” between values parts separate entries of the source, which are not always exact repeats. Equal values may be shown once.
Conditions: Liquid, Vibrating tube method

FC(C(F)(F)F)C(F)(F)F [1,1,1,2,3,3,3-heptafluoropropane]
Conditions | mass density
323.15 K, 24369 kPa | 1441.6 kg/m3
323.15 K, 24448 kPa | 1441.9 kg/m3
323.15 K, 24476 kPa | 1442 kg/m3
323.15 K, 24507 kPa | 1442.1 kg/m3
323.15 K, 24535 kPa | 1442.3 kg/m3
323.15 K, 24630 kPa | 1442.7 kg/m3
323.15 K, 25178 kPa | 1445.1 kg/m3
323.15 K, 25221 kPa | 1445.2 kg/m3
323.15 K, 25254 kPa | 1445.3 kg/m3
323.15 K, 25279 kPa | 1445.5 kg/m3
323.15 K, 25317 kPa | 1445.6 kg/m3
323.15 K, 25347 kPa | 1445.8 kg/m3
323.15 K, 25380 kPa | 1445.9 kg/m3
323.15 K, 25479 kPa | 1446.3 kg/m3
323.15 K, 25518 kPa | 1446.5 kg/m3
323.15 K, 25548 kPa | 1446.5 kg/m3
323.15 K, 25582 kPa | 1446.8 kg/m3
323.15 K, 25619 kPa | 1447 kg/m3
323.15 K, 25648 kPa | 1447.1 kg/m3
323.15 K, 25678 kPa | 1447.1 kg/m3
323.15 K, 25713 kPa | 1447.3 kg/m3
323.15 K, 25743 kPa | 1447.4 kg/m3
323.15 K, 25772 kPa | 1447.5 kg/m3
323.15 K, 25810 kPa | 1447.7 kg/m3
323.15 K, 25835 kPa | 1447.8 kg/m3
323.15 K, 25868 kPa | 1447.9 kg/m3
323.15 K, 25896 kPa | 1448 kg/m3
323.15 K, 25923 kPa | 1448.1 kg/m3
323.15 K, 26006 kPa | 1448.7 kg/m3
323.15 K, 26035 kPa | 1448.7 kg/m3
323.15 K, 26099 kPa | 1449 kg/m3
323.15 K, 26134 kPa | 1449.1 kg/m3
323.15 K, 26161 kPa | 1449.1 kg/m3
323.15 K, 26196 kPa | 1449.4 kg/m3
323.15 K, 26255 kPa | 1449.6 kg/m3
323.15 K, 26288 kPa | 1449.7 kg/m3
323.15 K, 27476 kPa | 1454.6 kg/m3
323.15 K, 27515 kPa | 1454.7 kg/m3
323.15 K, 27549 kPa | 1454.9 kg/m3
323.15 K, 27579 kPa | 1455 kg/m3
323.15 K, 27618 kPa | 1455.2 kg/m3
323.15 K, 27658 kPa | 1455.4 kg/m3
323.15 K, 27685 kPa | 1455.4 kg/m3
323.15 K, 27721 kPa | 1455.7 kg/m3
323.15 K, 27748 kPa | 1455.7 kg/m3
323.15 K, 27786 kPa | 1455.9 kg/m3
323.15 K, 27821 kPa | 1456 kg/m3
323.15 K, 27852 kPa | 1456 kg/m3
323.15 K, 27887 kPa | 1456.3 kg/m3
323.15 K, 27918 kPa | 1456.3 kg/m3
323.15 K, 27943 kPa | 1456.5 kg/m3
323.15 K, 27982 kPa | 1456.6 kg/m3
323.15 K, 28017 kPa | 1456.8 kg/m3
323.15 K, 28049 kPa | 1456.7 kg/m3
323.15 K, 28080 kPa | 1457 kg/m3
323.15 K, 28115 kPa | 1457.1 kg/m3
323.15 K, 28148 kPa | 1457.2 kg/m3
323.15 K, 28180 kPa | 1457.4 kg/m3
323.15 K, 28217 kPa | 1457.6 kg/m3
323.15 K, 28245 kPa | 1457.7 kg/m3
323.15 K, 28276 kPa | 1457.9 kg/m3
323.15 K, 28309 kPa | 1457.9 kg/m3
323.15 K, 28337 kPa | 1458 kg/m3
323.15 K, 28375 kPa | 1458.1 kg/m3
323.15 K, 28403 kPa | 1458.3 kg/m3
323.15 K, 28445 kPa | 1458.5 kg/m3
323.15 K, 28474 kPa | 1458.6 kg/m3
323.15 K, 28506 kPa | 1458.7 kg/m3
323.15 K, 28534 kPa | 1458.7 kg/m3
323.15 K, 28571 kPa | 1459 kg/m3
323.15 K, 28603 kPa | 1459.1 kg/m3
323.15 K, 28633 kPa | 1459.2 kg/m3
323.15 K, 28660 kPa | 1459.4 kg/m3
323.15 K, 28691 kPa | 1459.5 kg/m3
323.15 K, 28718 kPa | 1459.6 kg/m3
323.15 K, 28763 kPa | 1459.8 kg/m3
323.15 K, 28799 kPa | 1459.9 kg/m3
323.15 K, 28837 kPa | 1459.9 kg/m3
323.15 K, 28870 kPa | 1460.1 kg/m3
323.15 K, 28904 kPa | 1460.2 kg/m3
323.15 K, 28935 kPa | 1460.4 kg/m3
323.15 K, 28970 kPa | 1460.5 kg/m3
323.15 K, 28997 kPa | 1460.6 kg/m3
323.15 K, 29033 kPa | 1460.8 kg/m3
323.15 K, 29063 kPa | 1460.9 kg/m3
323.15 K, 29088 kPa | 1460.9 kg/m3
323.15 K, 29121 kPa | 1461.1 kg/m3
323.15 K, 29162 kPa | 1461.2 kg/m3
323.15 K, 29188 kPa | 1461.4 kg/m3
323.15 K, 29756 kPa | 1463.5 kg/m3
323.15 K, 29784 kPa | 1463.7 kg/m3
323.15 K, 29822 kPa | 1463.8 kg/m3
323.15 K, 29860 kPa | 1464 kg/m3
323.15 K, 29886 kPa | 1464 kg/m3
323.15 K, 29919 kPa | 1464.2 kg/m3
323.15 K, 29949 kPa | 1464.3 kg/m3
323.15 K, 30616 kPa | 1466.8 kg/m3
323.15 K, 30653 kPa | 1467 kg/m3
323.15 K, 30689 kPa | 1467.1 kg/m3
323.15 K, 30736 kPa | 1467.2 kg/m3
323.15 K, 30764 kPa | 1467.3 kg/m3
323.15 K, 30805 kPa | 1467.5 kg/m3
323.15 K, 30843 kPa | 1467.7 kg/m3
323.15 K, 30885 kPa | 1467.8 kg/m3
323.15 K, 32658 kPa | 1474.5 kg/m3
323.15 K, 32686 kPa | 1474.5 kg/m3
323.15 K, 34384 kPa | 1480.6 kg/m3
323.15 K, 34387 kPa | 1480.4 kg/m3 and 1480.6 kg/m3
323.16 K, 14143 kPa | 1389.6 kg/m3
323.16 K, 14163 kPa | 1389.5 kg/m3
323.16 K, 14186 kPa | 1389.6 kg/m3
323.16 K, 14200 kPa | 1389.8 kg/m3
323.16 K, 14366 kPa | 1390.8 kg/m3
323.16 K, 14386 kPa | 1390.8 kg/m3
323.16 K, 14409 kPa | 1390.9 kg/m3
323.16 K, 14427 kPa | 1391.1 kg/m3
323.16 K, 14450 kPa | 1391.3 kg/m3
323.16 K, 14470 kPa | 1391.5 kg/m3
323.16 K, 14492 kPa | 1391.6 kg/m3
323.16 K, 14509 kPa | 1391.5 kg/m3
323.16 K, 16696 kPa | 1404.2 kg/m3
323.16 K, 16719 kPa | 1404.2 kg/m3
323.16 K, 16735 kPa | 1404.5 kg/m3
323.16 K, 16783 kPa | 1404.5 kg/m3
323.16 K, 29984 kPa | 1464.4 kg/m3
323.16 K, 30010 kPa | 1464.6 kg/m3
323.16 K, 30040 kPa | 1464.7 kg/m3
323.16 K, 30071 kPa | 1464.8 kg/m3
323.16 K, 30102 kPa | 1464.9 kg/m3
323.16 K, 30132 kPa | 1465 kg/m3
323.16 K, 30163 kPa | 1465.1 kg/m3
323.16 K, 30194 kPa | 1465.2 kg/m3
323.16 K, 30221 kPa | 1465.4 kg/m3
323.16 K, 30252 kPa | 1465.5 kg/m3
323.16 K, 30280 kPa | 1465.6 kg/m3
323.16 K, 30311 kPa | 1465.6 kg/m3
323.16 K, 30340 kPa | 1465.8 kg/m3
323.16 K, 30380 kPa | 1466 kg/m3
323.16 K, 30414 kPa | 1466.1 kg/m3
323.16 K, 30444 kPa | 1466.3 kg/m3
323.16 K, 30470 kPa | 1466.4 kg/m3
323.16 K, 30505 kPa | 1466.5 kg/m3
323.16 K, 30532 kPa | 1466.6 kg/m3
323.16 K, 30554 kPa | 1466.6 kg/m3
323.16 K, 30581 kPa | 1466.8 kg/m3
333.13 K, 1640 kPa | 1225.8 kg/m3
333.13 K, 1661 kPa | 1226.3 kg/m3
333.13 K, 1691 kPa | 1226.6 kg/m3
333.13 K, 1709 kPa | 1227.1 kg/m3
333.13 K, 1736 kPa | 1227.6 kg/m3
333.13 K, 1764 kPa | 1228 kg/m3
333.13 K, 1789 kPa | 1228.4 kg/m3
333.13 K, 1815 kPa | 1229 kg/m3
333.13 K, 1839 kPa | 1229.7 kg/m3
333.13 K, 1866 kPa | 1229.9 kg/m3
333.13 K, 1898 kPa | 1230.4 kg/m3
333.13 K, 1924 kPa | 1231 kg/m3
333.13 K, 1944 kPa | 1231.2 kg/m3
333.13 K, 1976 kPa | 1231.8 kg/m3
333.13 K, 2004 kPa | 1232.3 kg/m3
333.13 K, 2034 kPa | 1232.9 kg/m3
333.13 K, 2056 kPa | 1233.2 kg/m3
333.13 K, 2088 kPa | 1233.7 kg/m3
333.13 K, 2113 kPa | 1234.2 kg/m3
333.13 K, 2138 kPa | 1234.6 kg/m3
333.13 K, 2357 kPa | 1238.4 kg/m3
333.13 K, 2604 kPa | 1242.4 kg/m3
333.13 K, 2744 kPa | 1244.5 kg/m3
333.13 K, 2770 kPa | 1244.9 kg/m3
333.13 K, 2793 kPa | 1245.1 kg/m3
333.13 K, 2828 kPa | 1245.9 kg/m3
333.13 K, 2863 kPa | 1246.2 kg/m3
333.13 K, 2890 kPa | 1246.6 kg/m3
333.13 K, 2915 kPa | 1247.1 kg/m3
333.13 K, 2950 kPa | 1247.6 kg/m3
333.13 K, 3233 kPa | 1251.7 kg/m3
333.13 K, 3261 kPa | 1252.3 kg/m3
333.13 K, 3298 kPa | 1252.9 kg/m3
333.13 K, 3326 kPa | 1253.1 kg/m3
333.13 K, 3358 kPa | 1253.7 kg/m3
333.13 K, 3391 kPa | 1254.2 kg/m3
333.13 K, 3420 kPa | 1254.6 kg/m3
333.13 K, 3448 kPa | 1255 kg/m3
333.13 K, 3488 kPa | 1255.4 kg/m3
333.13 K, 3517 kPa | 1256 kg/m3
333.13 K, 3542 kPa | 1256.2 kg/m3
333.13 K, 3575 kPa | 1256.7 kg/m3
333.13 K, 3608 kPa | 1257.2 kg/m3
333.13 K, 3641 kPa | 1257.6 kg/m3
333.13 K, 3670 kPa | 1258.2 kg/m3
333.13 K, 3699 kPa | 1258.5 kg/m3
333.13 K, 3726 kPa | 1258.9 kg/m3
333.13 K, 3767 kPa | 1259.4 kg/m3
333.13 K, 3793 kPa | 1259.7 kg/m3
333.13 K, 3826 kPa | 1260.3 kg/m3
333.13 K, 3860 kPa | 1260.8 kg/m3
333.13 K, 3894 kPa | 1261.2 kg/m3
333.13 K, 3924 kPa | 1261.5 kg/m3
333.13 K, 3950 kPa | 1261.9 kg/m3
333.13 K, 3984 kPa | 1262.2 kg/m3
333.13 K, 4010 kPa | 1262.9 kg/m3
333.13 K, 4041 kPa | 1263.1 kg/m3
333.13 K, 4072 kPa | 1263.5 kg/m3
333.13 K, 4105 kPa | 1264 kg/m3
333.13 K, 4143 kPa | 1264.4 kg/m3
